In patent US20110039721A1, “METHOD FOR PREDICTION ABOUT CARCINOGENICITY OF SUBSTANCE IN RODENT” (Chemicals Evaluation and Research Institute, priority 2007, published 2011):

Assays:
[1] = classification of the substance (M+/M−); cited from earlier work
[2] = tested on: liver; settings: classification of the substance (Cr+/Cr−); cited from earlier work
[3] = tested on: mRNA expressed from the genes (A) to (D) in rat liver; assay: Behavior of genes (mRNA expression level, oligo-DNA microarray) in rat liver after 28-day oral administration; format: in vivo; settings: mRNA vs vehicle control group; for Behavior of gene caused by administration of chemical substance, Gene No. 4846 / Behavior of gene caused by administration of chemical substance, Gene No. 2026 / Behavior of gene caused by administration of chemical substance, Gene No. 4218 / Behavior of gene caused by administration of chemical substance, Gene No. 6182 / Behavior of gene caused by administration of chemical substance, Gene No. 5600: gene group (A); for Behavior of gene caused by administration of chemical substance, Gene No. 4846: Unigene No. Rn.144554; for Behavior of gene caused by administration of chemical substance, Gene No. 2026 / Behavior of gene caused by administration of chemical substance, Gene No. 4218: Unigene No. Rn.167075; for Behavior of gene caused by administration of chemical substance, Gene No. 6182: Unigene No. Rn.5834; for Behavior of gene caused by administration of chemical substance, Gene No. 5600: Unigene No. Rn.9836; for Behavior of gene caused by administration of chemical substance, Gene No. 1494 / Behavior of gene caused by administration of chemical substance, Gene No. 2045 / Behavior of gene caused by administration of chemical substance, Gene No. 2203: gene group (B); for Behavior of gene caused by administration of chemical substance, Gene No. 1494: Unigene No. Rn.1430; for Behavior of gene caused by administration of chemical substance, Gene No. 2045: Unigene No. Rn.19329; for Behavior of gene caused by administration of chemical substance, Gene No. 2203: Unigene No. Rn.21240; for Behavior of gene caused by administration of chemical substance, Gene No. 533 / Behavior of gene caused by administration of chemical substance, Gene No. 725 / Behavior of gene caused by administration of chemical substance, Gene No. 1163 / Behavior of gene caused by administration of chemical substance, Gene No. 4973 / Behavior of gene caused by administration of chemical substance, Gene No. 4095 / Behavior of gene caused by administration of chemical substance, Gene No. 1334 / Behavior of gene caused by administration of chemical substance, Gene No. 6620 / Behavior of gene caused by administration of chemical substance, Gene No. 6303 / Behavior of gene caused by administration of chemical substance, Gene No. 5878 / Behavior of gene caused by administration of chemical substance, Gene No. 1131 / Behavior of gene caused by administration of chemical substance, Gene No. 1562 / Behavior of gene caused by administration of chemical substance, Gene No. 1741 / Behavior of gene caused by administration of chemical substance, Gene No. 893 / Behavior of gene caused by administration of chemical substance, Gene No. 6026 / Behavior of gene caused by administration of chemical substance, Gene No. 154 / Behavior of gene caused by administration of chemical substance, Gene No. 1993 / Behavior of gene caused by administration of chemical substance, Gene No. 813 / Behavior of gene caused by administration of chemical substance, Gene No. 2494 / Behavior of gene caused by administration of chemical substance, Gene No. 2546 / Behavior of gene caused by administration of chemical substance, Gene No. 3776 / Behavior of gene caused by administration of chemical substance, Gene No. 3929 / Behavior of gene caused by administration of chemical substance, Gene No. 1119 / Behavior of gene caused by administration of chemical substance, Gene No. 6742 / Behavior of gene caused by administration of chemical substance, Gene No. 5634: gene group (C); for Behavior of gene caused by administration of chemical substance, Gene No. 533: Unigene No. Rn.106184; for Behavior of gene caused by administration of chemical substance, Gene No. 725: Unigene No. Rn.108075; for Behavior of gene caused by administration of chemical substance, Gene No. 1163: Unigene No. Rn.11766; for Behavior of gene caused by administration of chemical substance, Gene No. 4973: Unigene No. Rn.118529; for Behavior of gene caused by administration of chemical substance, Gene No. 4095: Unigene No. Rn.119024; for Behavior of gene caused by administration of chemical substance, Gene No. 1334 / Behavior of gene caused by administration of chemical substance, Gene No. 6620: Unigene No. Rn.120914; for Behavior of gene caused by administration of chemical substance, Gene No. 6303: Unigene No. Rn.123063; for Behavior of gene caused by administration of chemical substance, Gene No. 5878: Unigene No. Rn.143213; for Behavior of gene caused by administration of chemical substance, Gene No. 1131: Unigene No. Rn.144946; for Behavior of gene caused by administration of chemical substance, Gene No. 1562: Unigene No. Rn.14744; for Behavior of gene caused by administration of chemical substance, Gene No. 1741: Unigene No. Rn.1647; for Behavior of gene caused by administration of chemical substance, Gene No. 893: Unigene No. Rn.164817; for Behavior of gene caused by administration of chemical substance, Gene No. 6026: Unigene No. Rn.167685; for Behavior of gene caused by administration of chemical substance, Gene No. 154: Unigene No. Rn.185941; for Behavior of gene caused by administration of chemical substance, Gene No. 1993: Unigene No. Rn.18728; for Behavior of gene caused by administration of chemical substance, Gene No. 813: Unigene No. Rn.201760; for Behavior of gene caused by administration of chemical substance, Gene No. 2494: Unigene No. Rn.23969; for Behavior of gene caused by administration of chemical substance, Gene No. 2546: Unigene No. Rn.24561; for Behavior of gene caused by administration of chemical substance, Gene No. 3776: Unigene No. Rn.43232; for Behavior of gene caused by administration of chemical substance, Gene No. 3929: Unigene No. Rn.4620; for Behavior of gene caused by administration of chemical substance, Gene No. 1119: Unigene No. Rn.9757; for Behavior of gene caused by administration of chemical substance, Gene No. 6742: Unigene No. Rn.9779; for Behavior of gene caused by administration of chemical substance, Gene No. 5634: Unigene No. Rn.9862; for Behavior of gene caused by administration of chemical substance, Gene No. 5726: gene group (D), Unigene No. Rn.9939
In short: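 Liver mRNA levels were compared with matched vehicle groups, with a shift of at least 1.5-fold up or down deemed significant unless its direction disagreed with other carcinogens. Test substances were dosed orally by gavage daily for 28 days to 5-week-old male F344 rats, four per group.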

[4] = tested on: rodent; settings: classification of the substance (C+/C−); cited from earlier work

Row | Structure (SMILES) | Mutagenicity by Ames test [1] | Liver carcinogenicity [2] | Behavior of gene caused by administration of chemical substance, Gene No. 4846 [3] | Behavior of gene caused by administration of chemical substance, Gene No. 2026 [3] | Behavior of gene caused by administration of chemical substance, Gene No. 4218 [3] | Behavior of gene caused by administration of chemical substance, Gene No. 6182 [3] | Behavior of gene caused by administration of chemical substance, Gene No. 5600 [3] | Behavior of gene caused by administration of chemical substance, Gene No. 1494 [3] | Behavior of gene caused by administration of chemical substance, Gene No. 2045 [3] | Behavior of gene caused by administration of chemical substance, Gene No. 2203 [3] | Behavior of gene caused by administration of chemical substance, Gene No. 533 [3] | Behavior of gene caused by administration of chemical substance, Gene No. 725 [3] | Behavior of gene caused by administration of chemical substance, Gene No. 1163 [3] | Behavior of gene caused by administration of chemical substance, Gene No. 4973 [3] | Behavior of gene caused by administration of chemical substance, Gene No. 4095 [3] | Behavior of gene caused by administration of chemical substance, Gene No. 1334 [3] | Behavior of gene caused by administration of chemical substance, Gene No. 6620 [3] | Behavior of gene caused by administration of chemical substance, Gene No. 6303 [3] | Behavior of gene caused by administration of chemical substance, Gene No. 5878 [3] | Behavior of gene caused by administration of chemical substance, Gene No. 1131 [3] | other results
1 | Cc1ccc2cc3c(ccc4ccccc43)c3c2c1CC3 [TS048, 3-Methylcholanthrene] | M+ | Cr− | − | + | − | − | − | − | − | − | − | − | − | − | − | − | − | − | − | − | Behavior of gene caused by administration of chemical substance, Gene No. 1562 [3]: −; Behavior of gene caused by administration of chemical substance, Gene No. 1741 [3]: −; Behavior of gene caused by administration of chemical substance, Gene No. 893 [3]: −; Behavior of gene caused by administration of chemical substance, Gene No. 6026 [3]: −; Behavior of gene caused by administration of chemical substance, Gene No. 154 [3]: −; Behavior of gene caused by administration of chemical substance, Gene No. 1993 [3]: −; Behavior of gene caused by administration of chemical substance, Gene No. 813 [3]: −; Behavior of gene caused by administration of chemical substance, Gene No. 2494 [3]: −; Behavior of gene caused by administration of chemical substance, Gene No. 2546 [3]: −; Behavior of gene caused by administration of chemical substance, Gene No. 3776 [3]: −; Behavior of gene caused by administration of chemical substance, Gene No. 3929 [3]: −; Behavior of gene caused by administration of chemical substance, Gene No. 1119 [3]: −; Behavior of gene caused by administration of chemical substance, Gene No. 6742 [3]: −; Behavior of gene caused by administration of chemical substance, Gene No. 5634 [3]: +; Behavior of gene caused by administration of chemical substance, Gene No. 5726 [3]: +; Carcinogenicity [4]: C+
2 | CCN(N=O)C(N)=O [TS050, N-Ethyl-N-nitrosourea] | M+ | Cr− | − | − | − | + | − | − | − | − | − | − | − | − | − | − | − | + | − | − | Behavior of gene caused by administration of chemical substance, Gene No. 1562 [3]: −; Behavior of gene caused by administration of chemical substance, Gene No. 1741 [3]: −; Behavior of gene caused by administration of chemical substance, Gene No. 893 [3]: −; Behavior of gene caused by administration of chemical substance, Gene No. 6026 [3]: −; Behavior of gene caused by administration of chemical substance, Gene No. 154 [3]: −; Behavior of gene caused by administration of chemical substance, Gene No. 1993 [3]: −; Behavior of gene caused by administration of chemical substance, Gene No. 813 [3]: −; Behavior of gene caused by administration of chemical substance, Gene No. 2494 [3]: −; Behavior of gene caused by administration of chemical substance, Gene No. 2546 [3]: −; Behavior of gene caused by administration of chemical substance, Gene No. 3776 [3]: −; Behavior of gene caused by administration of chemical substance, Gene No. 3929 [3]: −; Behavior of gene caused by administration of chemical substance, Gene No. 1119 [3]: −; Behavior of gene caused by administration of chemical substance, Gene No. 6742 [3]: −; Behavior of gene caused by administration of chemical substance, Gene No. 5634 [3]: −; Behavior of gene caused by administration of chemical substance, Gene No. 5726 [3]: +; Carcinogenicity [4]: C+
3 | O=C(O)C(Cl)(Cl)Cl [TS051, Trichloroacetic acid] | M− | Cr− | − | − | − | − | − | − | − | − | − | + | − | + | + | − | − | − | − | − | Behavior of gene caused by administration of chemical substance, Gene No. 1562 [3]: −; Behavior of gene caused by administration of chemical substance, Gene No. 1741 [3]: −; Behavior of gene caused by administration of chemical substance, Gene No. 893 [3]: −; Behavior of gene caused by administration of chemical substance, Gene No. 6026 [3]: −; Behavior of gene caused by administration of chemical substance, Gene No. 154 [3]: −; Behavior of gene caused by administration of chemical substance, Gene No. 1993 [3]: −; Behavior of gene caused by administration of chemical substance, Gene No. 813 [3]: −; Behavior of gene caused by administration of chemical substance, Gene No. 2494 [3]: −; Behavior of gene caused by administration of chemical substance, Gene No. 2546 [3]: −; Behavior of gene caused by administration of chemical substance, Gene No. 3776 [3]: −; Behavior of gene caused by administration of chemical substance, Gene No. 3929 [3]: −; Behavior of gene caused by administration of chemical substance, Gene No. 1119 [3]: −; Behavior of gene caused by administration of chemical substance, Gene No. 6742 [3]: −; Behavior of gene caused by administration of chemical substance, Gene No. 5634 [3]: −; Behavior of gene caused by administration of chemical substance, Gene No. 5726 [3]: +; Carcinogenicity [4]: C+
